Assay results reported in ChEMBL document CHEMBL5154762, “Design, synthesis, and tumor drug resistance reversal activity of novel hederagenin derivatives modified by nitrogen-containing heterocycles” (Eur J Med Chem, 2022).
Activity calls are given as the source filed them. No cut-off for these calls is given here.

Assays:
[1] = Cytotoxicity against human KBV cells assessed as decrease in cell survival rate at 10 uM measured after 72 hrs in presence of paclitaxel by MTT assay; type: functional; details: read-out: Survival
[2] = Cytotoxicity against human KBV cells assessed as decrease in cell survival rate at 10 uM measured after 72 hrs by MTT assay; type: functional; details: read-out: Survival
[3] = Induction of cell cycle arrest in human KBV cells assessed as accumulation at sub-G0 phase measured after 24 hrs by propidium iodide/RNase staining based flow cytometry analysis (reference value: 6.18%); type: functional
[4] = molecular target: ATP-dependent translocase ABCB1 (Homo sapiens, UniProt P08183); experiment: Inhibition of P-glycoprotein mediated Rhodamine-123 efflux in human KBV cells assessed as increase in rhodamine-123 accumulation incubated for 3 hrs in presence of rhodamine-123 by flow cytometry analysis; type: cell-based; details: DDE = dose-dependent effect
Chain of ATP-dependent translocase ABCB1 (P08183 whole entry): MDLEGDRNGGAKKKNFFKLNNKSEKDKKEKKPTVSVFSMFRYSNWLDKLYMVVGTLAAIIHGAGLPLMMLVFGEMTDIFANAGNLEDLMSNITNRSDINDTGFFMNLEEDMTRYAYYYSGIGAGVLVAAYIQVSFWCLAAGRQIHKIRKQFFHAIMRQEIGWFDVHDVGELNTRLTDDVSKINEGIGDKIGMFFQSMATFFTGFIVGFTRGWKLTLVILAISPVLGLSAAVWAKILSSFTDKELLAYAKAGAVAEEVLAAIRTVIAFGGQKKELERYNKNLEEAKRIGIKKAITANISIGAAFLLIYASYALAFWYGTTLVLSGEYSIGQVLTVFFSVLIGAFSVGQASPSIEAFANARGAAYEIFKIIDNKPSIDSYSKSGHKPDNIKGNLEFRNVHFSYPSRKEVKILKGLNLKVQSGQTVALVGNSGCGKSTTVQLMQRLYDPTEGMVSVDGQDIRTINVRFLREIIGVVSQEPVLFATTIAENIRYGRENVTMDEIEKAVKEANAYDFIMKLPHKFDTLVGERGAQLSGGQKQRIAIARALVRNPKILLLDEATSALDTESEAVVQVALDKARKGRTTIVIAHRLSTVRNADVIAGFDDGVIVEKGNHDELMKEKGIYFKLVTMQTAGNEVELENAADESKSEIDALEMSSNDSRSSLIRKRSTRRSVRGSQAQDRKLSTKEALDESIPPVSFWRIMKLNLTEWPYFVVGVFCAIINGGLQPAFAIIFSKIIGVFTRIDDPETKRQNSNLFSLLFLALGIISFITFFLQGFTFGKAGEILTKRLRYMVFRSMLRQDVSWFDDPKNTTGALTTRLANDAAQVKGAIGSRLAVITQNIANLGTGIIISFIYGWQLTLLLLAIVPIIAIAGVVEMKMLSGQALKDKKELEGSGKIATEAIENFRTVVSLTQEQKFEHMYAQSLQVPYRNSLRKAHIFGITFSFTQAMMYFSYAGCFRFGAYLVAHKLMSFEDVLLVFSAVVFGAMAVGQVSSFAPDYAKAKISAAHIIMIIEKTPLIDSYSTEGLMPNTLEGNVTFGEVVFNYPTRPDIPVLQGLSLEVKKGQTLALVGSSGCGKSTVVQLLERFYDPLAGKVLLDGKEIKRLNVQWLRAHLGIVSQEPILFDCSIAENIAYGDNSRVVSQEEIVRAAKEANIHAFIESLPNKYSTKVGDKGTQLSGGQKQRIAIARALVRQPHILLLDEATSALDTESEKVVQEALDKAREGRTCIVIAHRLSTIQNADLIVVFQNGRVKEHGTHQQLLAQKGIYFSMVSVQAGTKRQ

[5] = system: KBV; experiment: Induction of apoptosis in human KBV cells at 10 uM measured after 24 hrs in presence of paclitaxel by flow cytometry analysis; type: functional, cell-based
[6] = Toxicity in BALB/c mouse xenografted with human KBV cells assessed as change in body weight at 10 mg/kg, ip qd administered presence of paclitaxel; type: organism-based; details: in vivo
[7] = Antitumor activity against human KBV cells xenografted in BALB/c mouse assessed as tumor suppression rate at 10 mg/kg, ip qd administered in presence of paclitaxel; type: functional
[8] = system: KBV; experiment: Induction of cell cycle arrest in human KBV cells assessed as accumulation at G2/M phase measured after 24 hrs by propidium iodide/RNase staining based flow cytometry analysis; type: functional
[9] = Cytotoxicity against human KBV cells assessed as decrease in cell survival rate at 100 nM measured after 72 hrs by MTT assay; type: functional; details: read-out: Survival
[10] = Antitumor activity against human KBV cells xenografted in BALB/c mouse assessed as tumor suppression rate at 30 mg/kg administered once every three days; type: functional

Structure (SMILES)	viability at 10 µM [1] [%]	viability at 10 µM [2] [%]	other results
CC1(C)CC[C@]2(C(=O)O)CC[C@]3(C)C(=CC[C@@H]4[C@@]5(C)CC[C@H](O)[C@@](C)(CO)[C@@H]5CC[C@]43C)[C@@H]2C1 [HEDERAGENIN]	149		
Cc1ccccc1COC(=O)[C@]12CCC(C)(C)C[C@H]1C1=CC[C@@H]3[C@@]4(C)Cc5nccnc5[C@@](C)(CO)[C@@H]4CC[C@@]3(C)[C@]1(C)CC2	27.5	99.7	
CC1(C)CC[C@]2(C(=O)OCc3ccccc3[N+](=O)[O-])CC[C@]3(C)C(=CC[C@@H]4[C@@]5(C)Cc6nccnc6[C@@](C)(CO)[C@@H]5CC[C@]43C)[C@@H]2C1	27.1	103	
CC1(C)CC[C@]2(C(=O)OCc3ccccc3)CC[C@]3(C)C(=CC[C@@H]4[C@@]5(C)Cc6cnoc6[C@@](C)(COC(=O)CCC(=O)N6CCOCC6)[C@@H]5CC[C@]43C)[C@@H]2C1	34.1	89.6	
CC1(C)CC[C@]2(C(=O)OCc3ccccc3)CC[C@]3(C)C(=CC[C@@H]4[C@@]5(C)Cc6nccnc6[C@@](C)(CO)[C@@H]5CC[C@]43C)[C@@H]2C1	25.3		
Cc1cccc(COC(=O)[C@]23CCC(C)(C)C[C@H]2C2=CC[C@@H]4[C@@]5(C)Cc6nccnc6[C@@](C)(CO)[C@@H]5CC[C@@]4(C)[C@]2(C)CC3)c1	32.8	124	
CC1(C)CC[C@]2(C(=O)OCc3ccccc3)CC[C@]3(C)C(=CC[C@@H]4[C@@]5(C)Cc6cnoc6[C@@](C)(COC(=O)CCC(=O)O)[C@@H]5CC[C@]43C)[C@@H]2C1	16.6	34	
CCOC(=O)c1noc2c1C[C@@]1(C)[C@@H](CC[C@]3(C)[C@@H]1CC=C1[C@@H]4CC(C)(C)CC[C@]4(C(=O)O)CC[C@]13C)[C@]2(C)CO	92.1	93.9	
CC1(C)CC[C@]2(C(=O)OCc3ccc(Br)cc3)CC[C@]3(C)C(=CC[C@@H]4[C@@]5(C)Cc6nccnc6[C@@](C)(CO)[C@@H]5CC[C@]43C)[C@@H]2C1	34.2	109	
CC1(C)CC[C@]2(C(=O)OCc3cccc(F)c3)CC[C@]3(C)C(=CC[C@@H]4[C@@]5(C)Cc6nccnc6[C@@](C)(CO)[C@@H]5CC[C@]43C)[C@@H]2C1	35	110	
CN1CCN(C(=O)CCC(=O)OC[C@]2(C)c3oncc3C[C@@]3(C)[C@H]2CC[C@]2(C)[C@@H]3CC=C3[C@@H]4CC(C)(C)CC[C@]4(C(=O)OCc4ccccc4)CC[C@]32C)CC1	32.5	79.7	
CC1(C)CC[C@]2(C(=O)OCc3ccccc3)CC[C@]3(C)C(=CC[C@@H]4[C@@]5(C)Cc6cnoc6[C@@](C)(COC(=O)CCC(=O)N6CCCC6)[C@@H]5CC[C@]43C)[C@@H]2C1	33.3	99.4	
CC1(C)CC[C@]2(C(=O)OCc3ccccc3)CC[C@]3(C)C(=CC[C@@H]4[C@@]5(C)Cc6cnoc6[C@@](C)(COC(=O)CCC(=O)n6cccn6)[C@@H]5CC[C@]43C)[C@@H]2C1	63.1	69.6	
CC1(C)CC[C@]2(C(=O)OCc3ccc(F)cc3)CC[C@]3(C)C(=CC[C@@H]4[C@@]5(C)Cc6nccnc6[C@@](C)(CO)[C@@H]5CC[C@]43C)[C@@H]2C1	83.3	94.9	
CC1(C)CC[C@]2(C(=O)OCc3cccc(Br)c3)CC[C@]3(C)C(=CC[C@@H]4[C@@]5(C)Cc6nccnc6[C@@](C)(CO)[C@@H]5CC[C@]43C)[C@@H]2C1	19.6	39.8	
CC1(C)CC[C@]2(C(=O)OCc3ccccc3)CC[C@]3(C)C(=CC[C@@H]4[C@@]5(C)Cc6cnoc6[C@@](C)(COC(=O)CCC(=O)n6ccnc6)[C@@H]5CC[C@]43C)[C@@H]2C1	48.6	96.9	
CC1(C)CC[C@]2(C(=O)OCc3ccccc3)CC[C@]3(C)C(=CC[C@@H]4[C@@]5(C)Cc6cnoc6[C@@](C)(COC(=O)CCC(=O)N6CCCCC6)[C@@H]5CC[C@]43C)[C@@H]2C1	79.2	80.5	
CCN1CCN(C(=O)CCC(=O)OC[C@]2(C)c3oncc3C[C@@]3(C)[C@H]2CC[C@]2(C)[C@@H]3CC=C3[C@@H]4CC(C)(C)CC[C@]4(C(=O)OCc4ccccc4)CC[C@]32C)CC1	26.5	67.5	Activity [3]: 14.8%; inhibition (INH) [4]: Dde; Activity [5]: Active; Activity [6]: Non-Toxic; Activity [7]: 56.24%; Activity [8]: Active
CC1(C)CC[C@]2(C(=O)OCc3ccccc3F)CC[C@]3(C)C(=CC[C@@H]4[C@@]5(C)Cc6nccnc6[C@@](C)(CO)[C@@H]5CC[C@]43C)[C@@H]2C1	26.7	107	
CC(=O)O[C@H]1C(=O)[C@@]2(C)[C@H]([C@H](OC(=O)c3ccccc3)[C@]3(O)C[C@H](OC(=O)[C@H](O)[C@@H](NC(=O)c4ccccc4)c4ccccc4)C(C)=C1C3(C)C)[C@]1(OC(C)=O)CO[C@@H]1C[C@@H]2O [PACLITAXEL]			viability at 0.1 µM [9]: 98.7%; Activity [10]: 22.63%
CC1(C)CC[C@]2(C(=O)OCc3cccc(Cl)c3)CC[C@]3(C)C(=CC[C@@H]4[C@@]5(C)Cc6nccnc6[C@@](C)(CO)[C@@H]5CC[C@]43C)[C@@H]2C1	30.8	92	
CC1(C)CC[C@]2(C(=O)OCc3ccccc3)CC[C@]3(C)C(=CC[C@@H]4[C@@]5(C)Cc6cnoc6[C@@](C)(CO)[C@@H]5CC[C@]43C)[C@@H]2C1	33.7	140	
CCOC(=O)c1noc2c1C[C@@]1(C)[C@@H](CC[C@]3(C)[C@@H]1CC=C1[C@@H]4CC(C)(C)CC[C@]4(C(=O)OCc4ccccc4)CC[C@]13C)[C@]2(C)CO	94.7	102	
CC1(C)CC[C@]2(C(=O)OCc3ccc([N+](=O)[O-])cc3)CC[C@]3(C)C(=CC[C@@H]4[C@@]5(C)Cc6nccnc6[C@@](C)(CO)[C@@H]5CC[C@]43C)[C@@H]2C1	29.6	91.9	
